Assay results as given in patent publication US6512007B1, “Use of galiella lactone” (Bayer Aktiengesellschaft, priority 2000, dated 2003).

Tested on: Stat1
Experiment: IL-6-induced tyrosine-701 phosphorylation of Stat1 in HepG2 cells, immunoprecipitation/Western blot
Assay type: cell-based, human
Conditions: HepG2, IL-6 50 ng/ml; all concentrations tested, up to 16 μg/ml, equivalent to 165 μM
Source text: A crucial step in IL-6-dependent intracellular signal transduction is the phosphorylation of tyrosine-705 in Stat3 and tyrosine-701 in Stat1. […] However, inhibitors which inhibit the Stat3 and Stat1 phosphorylation also have crucial effects on other signal cascades, and therefore pharmaceutically usable inhibitors of IL-6-dependent gene expression should, in the concentration range in which they display their pharmacological effect, affect the Stat3 or Stat1 phosphorylation only slightly or not at all.
Seed out HepG2 cells in Petri dishes (diameter: 10 cm) (OptiMEM medium with 10% fetal calf serum and penicillin/streptomycin (100 iu) cell density: 5×10^5 cell/ml). Incubate in a moist atmosphere with 5% CO2 at 37° C. for 24 h. Replace medium by fresh OptiMEM medium with 0.5% fetal calf serum and penicillin/streptomycin (100 iu) and incubate for a further 48 h. Replace medium by fresh OptiMEM medium with 0.5% fetal calf serum and penicillin/streptomycin (100 iu), add test substances in various concentrations, and incubate for 60 min. 5 μl of the substances dissolved in ethanol, or only ethanol (controls), were added per mixture (10 ml). Induce cells by adding IL-6 (final concentrations 50 ng/ml).
After 20 min. remove medium and wash cell lawn twice wtih 1.5 ml of ice-cold PBS (137 mM NaCl, 2.7 mM KCl, 8.1 mM Na2HPO4×2H2O, 1.5 mM KH2PO4) each time. […]

Question: Which “effect on the phosphorylation of Stat1” value does the source give for `C[C@H]1C=C2C(=O)O[C@H]3CC[C@@H](C1)[C@@]23O` [galiella lactone] here?
Answer: no effect
